Results on three compounds are retold here after patent US20240300932A1, “N-PHENYLIMINE DERIVATIVE AND PREPARATION METHOD AND USE THEREOF” (Guizhou University, priority 2023, published 2024).

By melting point is commonly meant the temperature of the solid-liquid transition.

One data set has as its system Trifoliumre pensL. The data set is described as follows: Post-emergence herbicidal activity test (stem and leaf spray, pot culture). Format: in vivo. As to conditions: 3 weeks after spraying. The essentials:
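Rates of 10, 5 and 2.5 g/mu were applied in a single spray-tower treatment to 2–3-leaf plants, thinned to 10 per pot. Formulation: acetone solution, Tween 80, 1.5 L/ha methyl oleate synergist. Weed response assessed after 3 further greenhouse weeks; mean of three experiments.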

The next data set has as its system Setaria viridis. The data set is described as follows: Post-emergence herbicidal activity test (stem and leaf spray, pot culture). It is filed as in vivo. As to conditions: 3 weeks after spraying. The essentials:
(§1)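 Seeds soaked 6 h at 25 °C, germinated at 28 °C, sown in loam pots and thinned to 10 plants/pot. At 2–3 leaves, plants received a single spray-tower application of 10, 5 or 2.5 g/mu. Fresh-weight control was graded 0–5 after 3 weeks.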

The subject of the next data set is Abutilon theophrasti. The description is as above. The following applies: 3 weeks after spraying. Format: in vivo. The method, boiled down: as §1
Another data set relates to Portulaca oleracea. The data set is described as above. Format: in vivo. As to conditions: 3 weeks after spraying. The method, boiled down:
as §1

The subject of the next data set is Amaranthus retroflexus. The description is as above. It is filed as in vivo. As to conditions: 3 weeks after spraying. The method, boiled down: as §1
A further data set deals with Echinochloa crusgalli. The description is as above. The following applies: 3 weeks after spraying. It is filed as in vivo. The essentials:
as §1

`O=C(COc1cc(N2C(=O)C3=C(CCCC3)C2=O)c(F)cc1Cl)c1ccccc1F` [Compound C4, 2-(4-chloro-2-fluoro-5-(2-oxo-2-(2-fluorophenyl)ethoxy)phenyl)-4,5,6,7-tetrahydro-1H-isoindole-1,3(2H)-dione]: the melting point was 141 to 143 °C. For the same compound, in the data set with Trifoliumre pensL. (dosage 2.5 g/mu), the “Post-emergence herbicidal activity, Trifoliumre pensL. (grade)” value was 5 (Grade 5: the growth control rate is greater than or equal to 85%). The “Post-emergence herbicidal activity, Trifoliumre pensL. (grade)” value in the data set with Trifoliumre pensL. (dosage 5 g/mu) was 5 (Grade 5: the growth control rate is greater than or equal to 85%). In the data set on Trifoliumre pensL. (dosage 10 g/mu), the “Post-emergence herbicidal activity, Trifoliumre pensL. (grade)” value is 5 (Grade 5: the growth control rate is greater than or equal to 85%). For the same compound, the “Post-emergence herbicidal activity, S. viridis (grade)” value in the data set on Setaria viridis (dosage 2.5 g/mu) was 2 (Grade 2: the growth control rate is greater than or equal to 20% and less than 40%). In the data set on Setaria viridis (dosage 5 g/mu), the “Post-emergence herbicidal activity, S. viridis (grade)” value is 3 (Grade 3: the growth control rate is greater than or equal to 40% and less than 60%). Further, the “Post-emergence herbicidal activity, S. viridis (grade)” value in the data set with Setaria viridis (dosage 10 g/mu) is 4 (Grade 4: the growth control rate is greater than or equal to 60% and less than 85%). Also, in the data set on Abutilon theophrasti (dosage 2.5 g/mu), the “Post-emergence herbicidal activity, A. theophrasti (grade)” value is 5 (Grade 5: the growth control rate is greater than or equal to 85%). Besides, the “Post-emergence herbicidal activity, A. theophrasti (grade)” value with Abutilon theophrasti (dosage 5 g/mu) is listed as 5 (Grade 5: the growth control rate is greater than or equal to 85%). In the data set with Abutilon theophrasti (dosage 10 g/mu), the “Post-emergence herbicidal activity, A. theophrasti (grade)” value was 5 (Grade 5: the growth control rate is greater than or equal to 85%). Moreover, in the data set on Portulaca oleracea (dosage 2.5 g/mu), the “Post-emergence herbicidal activity, P. oleracea (grade)” value is 5 (Grade 5: the growth control rate is greater than or equal to 85%). In addition, the “Post-emergence herbicidal activity, P. oleracea (grade)” value with Portulaca oleracea (dosage 5 g/mu) was 5 (Grade 5: the growth control rate is greater than or equal to 85%). Besides, the “Post-emergence herbicidal activity, P. oleracea (grade)” value with Portulaca oleracea (dosage 10 g/mu) is reported as 5 (Grade 5: the growth control rate is greater than or equal to 85%). The “Post-emergence herbicidal activity, A. retroflexus (grade)” value in the data set on Amaranthus retroflexus (dosage 2.5 g/mu) was 5 (Grade 5: the growth control rate is greater than or equal to 85%). Moreover, the “Post-emergence herbicidal activity, A. retroflexus (grade)” value in the data set with Amaranthus retroflexus (dosage 5 g/mu) is recorded as 5 (Grade 5: the growth control rate is greater than or equal to 85%). In the data set with Amaranthus retroflexus (dosage 10 g/mu), the “Post-emergence herbicidal activity, A. retroflexus (grade)” value is 5 (Grade 5: the growth control rate is greater than or equal to 85%). In the data set with Echinochloa crusgalli (dosage 2.5 g/mu), the “Post-emergence herbicidal activity, E. crusgalli (grade)” value was 1 (Grade 1: the growth control rate is greater than or equal to 5% and less than 20%). The “Post-emergence herbicidal activity, E. crusgalli (grade)” value in the data set on Echinochloa crusgalli (dosage 5 g/mu) is 2 (Grade 2: the growth control rate is greater than or equal to 20% and less than 40%). In addition, in the data set on Echinochloa crusgalli (dosage 10 g/mu), the “Post-emergence herbicidal activity, E. crusgalli (grade)” value is 3 (Grade 3: the growth control rate is greater than or equal to 40% and less than 60%).

`O=C(COc1cc(N2C(=O)C3=C(CCCC3)C2=O)c(F)cc1Cl)c1cc(F)cc(F)c1` [Compound C5, 2-(4-chloro-2-fluoro-5-(2-oxo-2-(3,5-difluorophenyl)ethoxy)phenyl)-4,5,6,7-tetrahydro-1H-isoindole-1,3(2H)-dione] had a melting point of 135 to 137 °C. Further, the “Post-emergence herbicidal activity, Trifoliumre pensL. (grade)” value with Trifoliumre pensL. (dosage 2.5 g/mu) is 5 (Grade 5: the growth control rate is greater than or equal to 85%). Moreover, the “Post-emergence herbicidal activity, Trifoliumre pensL. (grade)” value in the data set with Trifoliumre pensL. (dosage 5 g/mu) is reported as 5 (Grade 5: the growth control rate is greater than or equal to 85%). For the same compound, in the data set with Trifoliumre pensL. (dosage 10 g/mu), the “Post-emergence herbicidal activity, Trifoliumre pensL. (grade)” value is on record as 5 (Grade 5: the growth control rate is greater than or equal to 85%). The “Post-emergence herbicidal activity, S. viridis (grade)” value with Setaria viridis (dosage 2.5 g/mu) is 2 (Grade 2: the growth control rate is greater than or equal to 20% and less than 40%). Besides, the “Post-emergence herbicidal activity, S. viridis (grade)” value in the data set on Setaria viridis (dosage 5 g/mu) is 3 (Grade 3: the growth control rate is greater than or equal to 40% and less than 60%). In the data set with Setaria viridis (dosage 10 g/mu), the “Post-emergence herbicidal activity, S. viridis (grade)” value is 4 (Grade 4: the growth control rate is greater than or equal to 60% and less than 85%). The “Post-emergence herbicidal activity, A. theophrasti (grade)” value in the data set with Abutilon theophrasti (dosage 2.5 g/mu) is listed as 5 (Grade 5: the growth control rate is greater than or equal to 85%). Also, the “Post-emergence herbicidal activity, A. theophrasti (grade)” value with Abutilon theophrasti (dosage 5 g/mu) was 5 (Grade 5: the growth control rate is greater than or equal to 85%). The “Post-emergence herbicidal activity, A. theophrasti (grade)” value with Abutilon theophrasti (dosage 10 g/mu) is 5 (Grade 5: the growth control rate is greater than or equal to 85%). In the data set with Portulaca oleracea (dosage 2.5 g/mu), the “Post-emergence herbicidal activity, P. oleracea (grade)” value was 5 (Grade 5: the growth control rate is greater than or equal to 85%). The “Post-emergence herbicidal activity, P. oleracea (grade)” value with Portulaca oleracea (dosage 5 g/mu) is 5 (Grade 5: the growth control rate is greater than or equal to 85%). Besides, the “Post-emergence herbicidal activity, P. oleracea (grade)” value in the data set on Portulaca oleracea (dosage 10 g/mu) is 5 (Grade 5: the growth control rate is greater than or equal to 85%). Also, in the data set with Amaranthus retroflexus (dosage 2.5 g/mu), the “Post-emergence herbicidal activity, A. retroflexus (grade)” value is listed as 5 (Grade 5: the growth control rate is greater than or equal to 85%). In addition, the “Post-emergence herbicidal activity, A. retroflexus (grade)” value in the data set on Amaranthus retroflexus (dosage 5 g/mu) is given as 5 (Grade 5: the growth control rate is greater than or equal to 85%). For the same compound, the “Post-emergence herbicidal activity, A. retroflexus (grade)” value with Amaranthus retroflexus (dosage 10 g/mu) was 5 (Grade 5: the growth control rate is greater than or equal to 85%). Further, in the data set with Echinochloa crusgalli (dosage 2.5 g/mu), the “Post-emergence herbicidal activity, E. crusgalli (grade)” value is 1 (Grade 1: the growth control rate is greater than or equal to 5% and less than 20%). In addition, the “Post-emergence herbicidal activity, E. crusgalli (grade)” value in the data set on Echinochloa crusgalli (dosage 5 g/mu) is 2 (Grade 2: the growth control rate is greater than or equal to 20% and less than 40%). The “Post-emergence herbicidal activity, E. crusgalli (grade)” value in the data set on Echinochloa crusgalli (dosage 10 g/mu) is 3 (Grade 3: the growth control rate is greater than or equal to 40% and less than 60%).

In turn, `O=C(COc1cc(N2C(=O)C3=C(CCCC3)C2=O)c(F)cc1Cl)c1ccc(F)cc1` [Compound C8, 2-(4-chloro-2-fluoro-5-(2-oxo-2-(4-fluorophenyl)ethoxy)phenyl)-4,5,6,7-tetrahydro-1H-isoindole-1,3(2H)-dione] gave a melting point of 126 to 128 °C. Further, in the data set on Trifoliumre pensL. (dosage 2.5 g/mu), the “Post-emergence herbicidal activity, Trifoliumre pensL. (grade)” value is reported as 5 (Grade 5: the growth control rate is greater than or equal to 85%). Besides, the “Post-emergence herbicidal activity, Trifoliumre pensL. (grade)” value in the data set with Trifoliumre pensL. (dosage 5 g/mu) was 5 (Grade 5: the growth control rate is greater than or equal to 85%). The “Post-emergence herbicidal activity, Trifoliumre pensL. (grade)” value with Trifoliumre pensL. (dosage 10 g/mu) is recorded as 5 (Grade 5: the growth control rate is greater than or equal to 85%). In addition, in the data set with Setaria viridis (dosage 2.5 g/mu), the “Post-emergence herbicidal activity, S. viridis (grade)” value was 2 (Grade 2: the growth control rate is greater than or equal to 20% and less than 40%). In addition, the “Post-emergence herbicidal activity, S. viridis (grade)” value in the data set with Setaria viridis (dosage 5 g/mu) is 3 (Grade 3: the growth control rate is greater than or equal to 40% and less than 60%). Besides, the “Post-emergence herbicidal activity, S. viridis (grade)” value with Setaria viridis (dosage 10 g/mu) is 4 (Grade 4: the growth control rate is greater than or equal to 60% and less than 85%). In addition, the “Post-emergence herbicidal activity, A. theophrasti (grade)” value in the data set on Abutilon theophrasti (dosage 2.5 g/mu) is listed as 5 (Grade 5: the growth control rate is greater than or equal to 85%). Also, in the data set on Abutilon theophrasti (dosage 5 g/mu), the “Post-emergence herbicidal activity, A. theophrasti (grade)” value is recorded as 5 (Grade 5: the growth control rate is greater than or equal to 85%). In addition, in the data set with Abutilon theophrasti (dosage 10 g/mu), the “Post-emergence herbicidal activity, A. theophrasti (grade)” value was 5 (Grade 5: the growth control rate is greater than or equal to 85%). Moreover, in the data set with Portulaca oleracea (dosage 2.5 g/mu), the “Post-emergence herbicidal activity, P. oleracea (grade)” value was 5 (Grade 5: the growth control rate is greater than or equal to 85%). In addition, the “Post-emergence herbicidal activity, P. oleracea (grade)” value in the data set with Portulaca oleracea (dosage 5 g/mu) is 5 (Grade 5: the growth control rate is greater than or equal to 85%). Further, the “Post-emergence herbicidal activity, P. oleracea (grade)” value in the data set on Portulaca oleracea (dosage 10 g/mu) was 5 (Grade 5: the growth control rate is greater than or equal to 85%). Also, the “Post-emergence herbicidal activity, A. retroflexus (grade)” value with Amaranthus retroflexus (dosage 2.5 g/mu) is listed as 5 (Grade 5: the growth control rate is greater than or equal to 85%). For the same compound, the “Post-emergence herbicidal activity, A. retroflexus (grade)” value in the data set on Amaranthus retroflexus (dosage 5 g/mu) is 5 (Grade 5: the growth control rate is greater than or equal to 85%). Also, in the data set on Amaranthus retroflexus (dosage 10 g/mu), the “Post-emergence herbicidal activity, A. retroflexus (grade)” value is listed as 5 (Grade 5: the growth control rate is greater than or equal to 85%). In the data set with Echinochloa crusgalli (dosage 2.5 g/mu), the “Post-emergence herbicidal activity, E. crusgalli (grade)” value was 1 (Grade 1: the growth control rate is greater than or equal to 5% and less than 20%). The “Post-emergence herbicidal activity, E. crusgalli (grade)” value with Echinochloa crusgalli (dosage 5 g/mu) was 2 (Grade 2: the growth control rate is greater than or equal to 20% and less than 40%). Also, the “Post-emergence herbicidal activity, E. crusgalli (grade)” value in the data set on Echinochloa crusgalli (dosage 10 g/mu) was 3 (Grade 3: the growth control rate is greater than or equal to 40% and less than 60%).
